In patent US12448389B2, “BRM targeting compounds and associated methods of use” (Prelude Therapeutics Incorporated, priority 2020, dated 2025):

Legend:
SMARCA2-HiBiT = target: T1, SMARCA2-HiBiT (Homo sapiens, UniProt P51531); assay: SMARCA2 HiBiT degradation assay in HeLa cells; type: cell-based; settings: 18 hours incubation; for DC50: read-out: HeLa_HiBit-SM2 DC50; for Dmax: HeLa, read-out: HeLa-HiBit-SM2 Dmax (%)
T1 construct: SMARCA2-HiBiT knock-in Hela monoclonal cell (CS302366); host or cells: HeLa monoclonal knock-in line (CRISPR HiBiT knock-in at the endogenous locus, heterozygous)
T1 sequence (P51531 whole entry): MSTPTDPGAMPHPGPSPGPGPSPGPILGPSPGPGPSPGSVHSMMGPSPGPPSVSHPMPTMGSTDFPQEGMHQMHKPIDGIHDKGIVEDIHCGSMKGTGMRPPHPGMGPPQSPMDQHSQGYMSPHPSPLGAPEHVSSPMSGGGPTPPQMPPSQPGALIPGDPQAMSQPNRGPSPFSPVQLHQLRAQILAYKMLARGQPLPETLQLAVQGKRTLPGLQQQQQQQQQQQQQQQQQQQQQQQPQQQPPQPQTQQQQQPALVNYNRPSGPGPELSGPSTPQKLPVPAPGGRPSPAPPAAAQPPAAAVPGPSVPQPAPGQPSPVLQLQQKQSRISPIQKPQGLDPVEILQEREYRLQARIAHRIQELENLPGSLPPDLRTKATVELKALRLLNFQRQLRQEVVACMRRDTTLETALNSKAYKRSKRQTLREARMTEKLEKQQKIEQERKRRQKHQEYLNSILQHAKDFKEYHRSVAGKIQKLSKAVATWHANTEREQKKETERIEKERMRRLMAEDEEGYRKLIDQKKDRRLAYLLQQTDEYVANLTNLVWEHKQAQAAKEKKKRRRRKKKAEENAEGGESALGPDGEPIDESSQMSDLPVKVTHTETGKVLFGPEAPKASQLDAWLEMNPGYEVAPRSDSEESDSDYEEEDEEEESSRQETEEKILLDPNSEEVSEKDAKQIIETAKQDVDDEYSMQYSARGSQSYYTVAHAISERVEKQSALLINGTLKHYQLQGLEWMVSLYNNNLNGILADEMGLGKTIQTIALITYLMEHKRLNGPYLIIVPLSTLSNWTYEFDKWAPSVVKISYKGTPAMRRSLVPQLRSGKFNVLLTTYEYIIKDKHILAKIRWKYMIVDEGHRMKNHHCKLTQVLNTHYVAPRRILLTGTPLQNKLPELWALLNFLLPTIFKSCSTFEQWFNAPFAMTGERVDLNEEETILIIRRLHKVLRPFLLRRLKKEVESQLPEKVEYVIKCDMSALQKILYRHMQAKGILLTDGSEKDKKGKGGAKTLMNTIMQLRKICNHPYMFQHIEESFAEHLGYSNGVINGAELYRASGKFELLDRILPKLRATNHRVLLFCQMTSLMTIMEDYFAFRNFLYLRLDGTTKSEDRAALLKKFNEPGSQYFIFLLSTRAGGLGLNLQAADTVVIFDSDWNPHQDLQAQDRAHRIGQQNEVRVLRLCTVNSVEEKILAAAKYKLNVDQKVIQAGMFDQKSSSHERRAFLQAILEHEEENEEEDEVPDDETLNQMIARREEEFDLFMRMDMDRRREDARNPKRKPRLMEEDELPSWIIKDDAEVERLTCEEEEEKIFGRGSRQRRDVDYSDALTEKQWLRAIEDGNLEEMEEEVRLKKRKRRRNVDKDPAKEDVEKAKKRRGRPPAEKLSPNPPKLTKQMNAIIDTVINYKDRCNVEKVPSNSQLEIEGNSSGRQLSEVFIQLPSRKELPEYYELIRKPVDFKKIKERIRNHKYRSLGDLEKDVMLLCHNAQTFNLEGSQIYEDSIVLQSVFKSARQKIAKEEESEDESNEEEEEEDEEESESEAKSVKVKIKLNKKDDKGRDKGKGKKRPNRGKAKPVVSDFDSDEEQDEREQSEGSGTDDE
Summary of the method: (§1)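 HeLa monoclonal lines with heterozygous HiBiT knock-in were seeded at 2500 cells/well in EMEM with 10% FBS and treated with compound for 18 h at 37 °C. Remaining tagged protein was measured by Nano-Glo HiBiT lytic luminescence after 30–60 min at RT, and values came from curve fitting.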

SMARCA4-HiBiT = target: T2, SMARCA4-HiBiT (Homo sapiens, UniProt P51532); assay: SMARCA4 HiBiT degradation assay in HeLa cells; type: cell-based; settings: 18 hours incubation; for DC50: read-out: HeLa-HiBit-SM4 DC50; for Dmax: HeLa, read-out: HeLa-HiBit-SM4 Dmax (%)
T2 construct: SMARCA4-HiBiT knock-in Hela monoclonal cell (CS3023226); host or cells: HeLa monoclonal knock-in line (CRISPR HiBiT knock-in at the endogenous locus, heterozygous)
T2 sequence (P51532 whole entry): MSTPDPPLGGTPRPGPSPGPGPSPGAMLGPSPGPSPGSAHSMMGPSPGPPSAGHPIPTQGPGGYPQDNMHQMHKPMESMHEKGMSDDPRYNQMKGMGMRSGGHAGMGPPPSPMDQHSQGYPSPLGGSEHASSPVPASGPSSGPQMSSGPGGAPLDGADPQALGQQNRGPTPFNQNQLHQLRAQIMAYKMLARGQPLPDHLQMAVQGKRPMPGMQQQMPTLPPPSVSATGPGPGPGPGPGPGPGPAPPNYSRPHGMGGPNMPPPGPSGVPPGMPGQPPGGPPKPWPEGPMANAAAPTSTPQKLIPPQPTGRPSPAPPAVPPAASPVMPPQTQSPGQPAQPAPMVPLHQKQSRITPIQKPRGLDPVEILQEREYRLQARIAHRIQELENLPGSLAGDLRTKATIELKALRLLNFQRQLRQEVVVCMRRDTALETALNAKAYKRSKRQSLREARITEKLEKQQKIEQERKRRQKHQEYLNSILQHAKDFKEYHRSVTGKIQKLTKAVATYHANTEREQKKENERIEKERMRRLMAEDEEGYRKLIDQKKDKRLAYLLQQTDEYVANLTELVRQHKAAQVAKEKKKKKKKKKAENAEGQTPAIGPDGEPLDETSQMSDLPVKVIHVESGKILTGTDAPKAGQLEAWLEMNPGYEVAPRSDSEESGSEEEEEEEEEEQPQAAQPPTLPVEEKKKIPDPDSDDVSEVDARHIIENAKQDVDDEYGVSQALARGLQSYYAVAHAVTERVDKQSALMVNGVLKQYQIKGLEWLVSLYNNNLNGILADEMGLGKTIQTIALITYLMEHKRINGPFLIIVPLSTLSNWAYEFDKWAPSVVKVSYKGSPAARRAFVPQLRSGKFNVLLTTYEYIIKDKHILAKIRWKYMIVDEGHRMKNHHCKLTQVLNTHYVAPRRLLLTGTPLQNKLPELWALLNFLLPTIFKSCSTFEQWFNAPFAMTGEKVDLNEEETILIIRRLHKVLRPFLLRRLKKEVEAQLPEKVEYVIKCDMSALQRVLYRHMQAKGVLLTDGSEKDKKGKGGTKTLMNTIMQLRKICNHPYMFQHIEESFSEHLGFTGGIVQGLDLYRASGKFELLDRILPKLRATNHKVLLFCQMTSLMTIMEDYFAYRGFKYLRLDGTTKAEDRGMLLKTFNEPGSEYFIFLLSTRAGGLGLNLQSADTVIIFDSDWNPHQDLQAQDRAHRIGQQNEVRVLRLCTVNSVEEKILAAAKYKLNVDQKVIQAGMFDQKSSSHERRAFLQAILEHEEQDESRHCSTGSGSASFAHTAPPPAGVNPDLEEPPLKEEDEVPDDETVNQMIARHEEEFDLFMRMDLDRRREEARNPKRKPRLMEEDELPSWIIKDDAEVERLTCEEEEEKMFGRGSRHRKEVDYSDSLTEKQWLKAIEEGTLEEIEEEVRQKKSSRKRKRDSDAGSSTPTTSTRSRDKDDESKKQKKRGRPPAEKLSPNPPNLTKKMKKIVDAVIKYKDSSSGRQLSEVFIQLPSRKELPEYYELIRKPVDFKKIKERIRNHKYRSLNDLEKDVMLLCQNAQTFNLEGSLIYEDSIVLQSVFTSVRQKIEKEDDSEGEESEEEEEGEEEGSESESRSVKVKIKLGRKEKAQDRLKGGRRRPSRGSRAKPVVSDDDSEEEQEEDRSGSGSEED
Summary of the method: as §1

| SMILES | DC50 (SMARCA2-HiBiT) [nM] | Dmax (SMARCA2-HiBiT) [%] | DC50 (SMARCA4-HiBiT) [nM] | Dmax (SMARCA4-HiBiT) [%] | HeLa-HiBit-SM4 Dmax (%) (SMARCA4-HiBiT) |
| --- | --- | --- | --- | --- | --- |
| O=C1CCC(N2C(=O)c3ccc(N4CCOC(CN5C[C@@H]6[C@H](C5)[C@H]6CN5CCN6c7cc(-c8ccccc8O)nnc7NC[C@H]6C5)C4)cc3C2=O)C(=O)N1 (stereo partly drawn) [Example 49, 2-(2,6-dioxopiperidin-3-yl)-5-(2-(((1R,5S,6s)-6-(((S)-2-(2-hydroxyphenyl)-5,6,6a,7,9,10-hexahydro-8H-pyrazino[1′,2′:4,5]pyrazino[2,3-c]pyridazin-8-yl)methyl)-3-azabicyclo[3.1.0]hexan-3-yl)methyl)morpholino)isoindoline-1,3-dione] | < 10 | > 85 | < 10 | 75 to 85 |  |
| O=C1CCC(N2C(=O)c3ccc(N4CCC(CN5CCC(CN6CCN7c8cc(-c9ccccc9O)nnc8NC[C@H]7C6)CC5)C(F)(F)C4)cc3C2=O)C(=O)N1 (stereo partly drawn) [Example 181, 5-[3,3-difluoro-4-[[4-[[(10S)-4-(2-hydroxyphenyl)-1,5,6,8,12-pentazatricyclo[8.4.0.02,7]tetradeca-2,4,6-trien-12-yl]methyl]piperidin-1-yl]mehtyl]piperidin-1-yl]-2-(2,6-dioxopiperidin-3-yl) isoindoline-1,3-dione] | < 10 | > 85 | < 10 | > 85 |  |
| O=C1CCC(N2C(=O)c3ccc(N4CCC(CN5CCC(CN6CCN7c8cc(-c9ccccc9O)nnc8NC[C@H]7C6)CC5)CC4)cc3C2=O)C(=O)N1COP(=O)(O)O (stereo partly drawn) [Example 129, (3-(5-(4-((4-(((S)-2-(2-hydroxyphenyl)-5,6,6a,7,9,10-hexahydro-8H-pyrazino[1′,2′:4,5]pyrazino[2,3-c]pyridazin-8-yl)methyl)piperidin-1-yl)methyl)piperidin-1-yl)-1,3-dioxoisoindolin-2-yl)-2,6-dioxopiperidin-1-yl)methyl) dihydrogen phosphate] | < 10 | > 85 | < 10 | > 85 |  |
| C[C@@H]1C[C@H](CN2C[C@@H]3[C@H](C2)[C@H]3CN2CCN3c4cc(-c5ccccc5O)nnc4NC[C@H]3C2)CCN1c1ccc2c(c1)C(=O)N(C1CCC(=O)NC1=O)C2=O (stereo partly drawn) [Example 183, 2-(2,6-dioxopiperidin-3-yl)-5-[(2R,4R)-4-[[(1S,5R)-6-[[(10S)-4-(2-hydroxyphenyl)-1,5,6,8,12-pentazatricyclo[8.4.0.02,7]tetradeca-2,4,6-trien-12-yl]methyl]-3-azabicyclo[3.1.0]hexan-3-yl]methyl]-2-methylpiperidin-1-yl] isoindole-1,3-dione] | < 10 | > 85 | < 10 | 75 to 85 |  |
| O=C1CCC(N2C(=O)c3ccc(N4CCC(CN5CCC(CCCN6CCN7c8cc(-c9ccccc9O)nnc8NC[C@H]7C6)CC5)CC4)cc3C2=O)C(=O)N1 (stereo partly drawn) [Example 228, 2-(2,6-dioxopiperidin-3-yl)-5-(4-((4-(3-((S)-2-(2-hydroxyphenyl)-5,6,6a,7,9,10-hexahydro-8H-pyrazino[1′,2′:4,5]pyrazino[2,3-c]pyridazin-8-yl)propyl)piperidin-1-yl)methyl)piperidin-1-yl)isoindoline-1,3-dione] | < 10 | > 85 | < 10 | > 85 |  |
| CC1CN(CC2CCN(c3ccc4c(c3)C(=O)N(C3CCC(=O)NC3=O)C4)CC2)CCC1C(=O)N1CCN2c3cc(-c4ccccc4O)nnc3NC[C@H]2C1 (stereo partly drawn) [Example 264, 3-(6-(4-((4-((S)-2-(2-hydroxyphenyl)-6,6a,7,8,9,10-hexahydro-5H-pyrazino[1′,2′:4,5]pyrazino[2,3-c]pyridazine-8-carbonyl)-3-methylpiperidin-1-yl)methyl)piperidin-1-yl)-1-oxoisoindolin-2-yl)piperidine-2,6-dione] | < 10 | > 85 | < 10 | 75 to 85 |  |
| O=C1CCC(N2C(=O)c3ccc(N4CCC(CN5C[C@@H]6[C@H](C5)[C@H]6CN5CCN6c7cc(-c8ccccc8O)nnc7NC[C@H]6C5)[C@@H](F)C4)cc3C2=O)C(=O)N1 (stereo in doubt) [Example 192, 2-(2,6-dioxopiperidin-3-yl)-5-[(3R,4R)-3-fluoro-4-[[(1S,5R)-6-[[(10S)-4-(2-hydroxyphenyl)-1,5,6,8,12-pentazatricyclo[8.4.0.02,7]tetradeca-2(7),3,5-trien-12-yl]methyl]-3-azabicyclo[3.1.0]hexan-3-yl]methyl]piperidin-1-yl]isoindole-1,3-dione] | < 10 | 50 to 75 | < 10 | ≤ 50 |  |
| CN1CCN(c2ccc3c(c2)C(=O)N(C2CCC(=O)NC2=O)C3=O)CC1CN1C[C@@H]2[C@H](C1)[C@H]2CN1CCN2c3cc(-c4ccccc4O)nnc3NC[C@H]2C1 (stereo partly drawn) [Example 56, 2-(2,6-dioxopiperidin-3-yl)-5-(3-(((1R,5S,6r)-6-(((S)-2-(2-hydroxyphenyl)-5,6,6a,7,9,10-hexahydro-8H-pyrazino[1′,2′:4,5]pyrazino[2,3-c]pyridazin-8-yl)methyl)-3-azabicyclo[3.1.0]hexan-3-yl)methyl)-4-methylpiperazin-1-yl)isoindoline-1,3-dione] | < 10 | 50 to 75 | 10 to 100 | 75 to 85 |  |

Second part, the molecule after the results:

| DC50 (SMARCA2-HiBiT) [nM] | Dmax (SMARCA2-HiBiT) [%] | DC50 (SMARCA4-HiBiT) [nM] | Dmax (SMARCA4-HiBiT) [%] | HeLa-HiBit-SM4 Dmax (%) (SMARCA4-HiBiT) | SMILES |
| --- | --- | --- | --- | --- | --- |
| < 10 | 75 to 85 | < 10 |  | C (C=50%<Dmax<=75%) | O=C1CCC(N2C(=O)c3ccc(N4CC[C@@H](CN5C[C@@H]6[C@H](C5)[C@H]6CN5CCN6c7cc(-c8ccccc8O)nnc7NC[C@H]6C5)[C@H](F)C4)cc3C2=O)C(=O)N1 (stereo partly drawn) [Example 200, 2-(2,6-dioxopiperidin-3-yl)-5-[(3S,4S)-3-fluoro-4-[[(1S,5R)-6-[[(10S)-4-(2-hydroxyphenyl)-1,5,6,8,12-pentazatricyclo [8.4.0.02,7]tetradeca-2(7),3,5-trien-12-yl]methyl]-3-azabicyclo[3.1.0]hexan-3-yl]methyl]piperidin-1-yl]isoindole-1,3-dione] |
| < 10 | 75 to 85 | 10 to 100 | ≤ 50 |  | O=C1CCC(N2C(=O)c3ccc(N4CC[C@H](CN5C[C@@H]6[C@H](C5)[C@H]6CN5CCN6c7cc(-c8c(O)cccc8F)nnc7NC[C@H]6C5)[C@@H](F)C4)cc3C2=O)C(=O)N1 (stereo partly drawn) [Example 281, 2-(2,6-dioxopiperidin-3-yl)-5-((3R,4R)-3-fluoro-4-(((1R,5S,6R)-6-(((S)-2-(2-fluoro-6-hydroxyphenyl)-5,6,6a,7,9,10-hexahydro-8H-pyrazino[1′,2′:4,5]pyrazino[2,3-c]pyridazin-8-yl)methyl)-3-azabicyclo[3.1.0]hexan-3-yl)methyl)piperidin-1-yl) isoindoline-1,3-dione] |
| < 10 | > 85 | < 10 | > 85 |  | CC(C1CCN(CC2CCN(c3ccc4c(c3)C(=O)N(C3CCC(=O)NC3=O)C4=O)CC2)CC1)N1CCN2c3cc(-c4ccccc4O)nnc3NC[C@H]2C1 (stereo partly drawn) [Example 32, 2-(2,6-dioxopiperidin-3-yl)-5-(4-((4-(1-((S)-2-(2-hydroxyphenyl)-5,6,6a,7,9,10-hexahydro-8H-pyrazino[1′,2′:4,5]pyrazino[2,3-c]pyridazin-8-yl)ethyl)piperidin-1-yl)methyl)piperidin-1-yl)isoindoline-1,3-dione] |
| < 10 | 50 to 75 | < 10 | 50 to 75 |  | N#CC1(CN2CCC(CN3CCN4c5cc(-c6ccccc6O)nnc5NC[C@H]4C3)CC2)CCN(c2ccc3c(c2)C(=O)N(C2CCC(=O)NC2=O)C3=O)CC1 (stereo partly drawn) [Example 179, 1-[2-(2,6-dioxopiperidin-3-yl)-1,3-dioxoisoindol-5-y]-4-[[4-[[(10S)-4-(2-hydroxyphenyl)-1,5,6,8,12-pentazatricyclo[8.4.0.02,7]tetradeca-2,4,6-trien-12-yl]methyl]piperidin-1-yl]methyl]piperidine-4-carbonitrile] |
| < 10 | 75 to 85 | < 10 | 75 to 85 |  | O=C1CCC(N2C(=O)c3ccc(N4CCN(C(=O)OCCN5CCC(N6CCN7c8cc(-c9ccccc9O)nnc8NC[C@H]7C6)CC5)CC4)cc3C2=O)C(=O)N1 (stereo partly drawn) [Example 223, 2-(4-((S)-2-(2-hydroxyphenyl)-5,6,6a,7,9,10-hexahydro-8H-pyrazino[1′,2′:4,5]pyrazino[2,3-c]pyridazin-8-yl)piperidin-1-yl)ethyl 4-(2-(2,6-dioxopiperidin-3-yl)-1,3-dioxoisoindolin-5-yl)piperazine-1-carboxylate] |
| < 10 | 75 to 85 | < 10 | 75 to 85 |  | CN(CCNc1ccc2c(c1)C(=O)N(C1CCC(=O)NC1=O)C2=O)C1CCC(N2CCN3c4cc(-c5ccccc5O)nnc4NC[C@H]3C2)CC1 (stereo partly drawn) [Example 220, 2-(2,6-dioxopiperidin-3-yl)-5-((2-((4-((S)-2-(2-hydroxyphenyl)-5,6,6a,7,9,10-hexahydro-8H-pyrazino[1′,2′:4,5]pyrazino[2,3-c]pyridazin-8-yl)cyclohexyl)(methyl)amino)ethyl)amino) isoindoline-1,3-dione] |
| < 10 | > 85 | < 10 | > 85 |  | O=C1CCC(N2Cc3ccc(N4CCC(CN5CCN(C(=O)N6CCN7c8cc(-c9ccccc9O)nnc8NC[C@H]7C6)C6(CC6)C5)CC4)cc3C2=O)C(=O)N1 (stereo partly drawn) [Example 262, 3-(6-(4-((4-((S)-2-(2-hydroxyphenyl)-6,6a,7,8,9,10-hexahydro-5H-pyrazino[1′,2′:4,5]pyrazino[2,3-c]pyridazine-8-carbonyl)-4,7-diazaspiro[2.5]octan-7-yl)methyl)piperidin-1-yl)-1-oxoisoindolin-2-yl)piperidine-2,6-dione] |
